# Test results from PubChem BioAssay (NCI).
#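 Test compounds were applied to cells in 96-well plates for 48 hours at 5 doses. GI50 marks 50% less growth. TGI: concentration producing complete growth inhibition.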
# Experiments:
# Experiment in all cases: inhibition of tumour cell growth, NCI panel, 48 h
# CAKI-1 renal = test system: CAKI-1 renal
# 786-0 renal = test system: 786-0 renal
# MALME-3M melanoma = test system: MALME-3M melanoma
# HT29 colon = test system: HT29 colon
# SW-620 colon = test system: SW-620 colon
# SK-MEL-2 melanoma = test system: SK-MEL-2 melanoma
# ACHN renal = test system: ACHN renal
# COLO 205 colon = test system: COLO 205 colon
# UACC-257 melanoma = test system: UACC-257 melanoma
# SK-OV-3 ovarian = test system: SK-OV-3 ovarian
SMILES,TGI (CAKI-1 renal),TGI (786-0 renal),TGI (MALME-3M melanoma),TGI (HT29 colon),TGI (SW-620 colon),TGI (SK-MEL-2 melanoma),TGI (ACHN renal),TGI (COLO 205 colon),TGI (UACC-257 melanoma),TGI (SK-OV-3 ovarian),GI50 (CAKI-1 renal),GI50 (786-0 renal),GI50 (MALME-3M melanoma),GI50 (HT29 colon),GI50 (SW-620 colon),GI50 (SK-MEL-2 melanoma),GI50 (ACHN renal),GI50 (COLO 205 colon),GI50 (UACC-257 melanoma),GI50 (SK-OV-3 ovarian)
CC(=O)OC1CCn2nnc(CO[Si](C)(C)C(C)(C)C)c21 (centres undefined),> 100 µM,> 100 µM,> 100 µM,> 100 µM,> 100 µM,> 100 µM,> 100 µM,> 100 µM,> 100 µM,> 100 µM,–,–,–,–,–,–,–,–,–,–
CN(C)c1ccc(/C=C\c2cccc[n+]2C)cc1,> 100 µM,> 100 µM,> 100 µM,> 100 µM,> 100 µM,> 100 µM,> 100 µM,2.81 µM,> 100 µM,52 µM,3.8 µM,16.3 µM,15.6 µM,5.01 µM,3.57 µM,20.4 µM,43 µM,1.22 µM,7.81 µM,4.85 µM
COc1cc(C(=O)C/C(CCC(=O)Nc2ccccc2[N+](=O)[O-])=N\NC(=O)CC#N)ccc1O,> 100 µM,> 100 µM,> 100 µM,> 100 µM,> 100 µM,> 100 µM,> 100 µM,> 100 µM,> 100 µM,> 100 µM,–,–,–,–,–,–,–,–,–,–
O=[N+]([O-])c1cccc(-c2nc3sccn3c2-c2ccnc(NCCCNS(=O)(=O)c3cccc(F)c3)n2)c1,14.1 µM,45.6 µM,7.06 µM,> 100 µM,> 100 µM,5.98 µM,11.2 µM,8.11 µM,8.27 µM,30.5 µM,2.33 µM,7.97 µM,2.14 µM,3.12 µM,4.12 µM,2.04 µM,2.19 µM,2.46 µM,2.71 µM,5.82 µM
CN(C)c1ccc(C=C2C(=O)OC(C)(C)OC2=O)cc1Br,> 100 µM,> 100 µM,> 100 µM,> 100 µM,> 100 µM,> 100 µM,> 100 µM,> 100 µM,> 100 µM,> 100 µM,–,–,–,–,–,–,–,–,–,–
CC(CN1CCN(CCOCCO)CC1)CN1c2ccccc2Sc2ccc(Cl)cc21 (centres undefined),17.1 µM,18 µM,3.45 µM,3.36 µM,3.58 µM,3.63 µM,12.6 µM,3.18 µM,3.11 µM,21.8 µM,4.37 µM,4.79 µM,1.75 µM,1.79 µM,1.84 µM,1.87 µM,3.46 µM,1.69 µM,1.49 µM,8.87 µM
COC(=O)Cn1c2c(c3c(O)cccc31)C(=O)c1ccccc1-2,> 100 µM,> 100 µM,> 100 µM,> 100 µM,> 100 µM,> 100 µM,> 100 µM,> 100 µM,> 100 µM,> 100 µM,> 100 µM,> 100 µM,> 100 µM,> 100 µM,> 100 µM,> 100 µM,> 100 µM,> 100 µM,> 100 µM,> 100 µM
COC1CC(OS(=O)(=O)c2ccc(C)cc2)C(OC(=O)c2ccccc2)C(C)O1 (centres undefined),> 100 µM,> 100 µM,> 100 µM,> 100 µM,> 100 µM,> 100 µM,> 100 µM,> 100 µM,> 10 µM,> 100 µM,> 100 µM,> 100 µM,> 100 µM,> 100 µM,> 100 µM,> 100 µM,> 100 µM,> 100 µM,–,> 100 µM
COc1ccc(C(OCC2OC(n3ccc(NC(=O)c4ccccc4)nc3=O)C(O)C2O)(c2ccccc2)c2ccccc2)cc1 (centres undefined),5.79 µM,3.69 µM,3.73 µM,3.04 µM,5.8 µM,6.68 µM,7.59 µM,3.7 µM,21.1 µM,20.6 µM,–,–,–,–,–,–,–,–,–,–
Cc1cc2c3ccc(C)[n+](C)c3ccc2n1C,> 100 µM,> 100 µM,12.7 µM,23.8 µM,> 100 µM,25 µM,> 100 µM,5.52 µM,16.1 µM,9.41 µM,30.5 µM,5 µM,3.6 µM,3.07 µM,2.15 µM,7.56 µM,21.5 µM,1.75 µM,3.45 µM,2.88 µM
O=C(O)C/C=C/CC(=O)O,> 100 µM,> 100 µM,> 100 µM,> 100 µM,> 100 µM,> 100 µM,> 100 µM,> 100 µM,> 100 µM,> 100 µM,–,–,–,–,–,–,–,–,–,–
COC(=O)C(Cc1ccccc1)NC(=O)NC(=O)NC(=O)CI (centres undefined),4.08 µM,10.9 µM,3.34 µM,49.9 µM,21.7 µM,30.7 µM,3.62 µM,3.56 µM,26.5 µM,29.4 µM,2 µM,3.35 µM,1.55 µM,14.2 µM,5.95 µM,16.4 µM,1.85 µM,1.83 µM,13.2 µM,15.8 µM
O=C1c2ccccc2-c2c1c1ccc([N+](=O)[O-])cc1c(=O)n2CCCBr,> 100 µM,> 100 µM,> 100 µM,> 100 µM,> 100 µM,> 100 µM,> 100 µM,> 100 µM,> 100 µM,> 100 µM,3.23 µM,> 100 µM,> 100 µM,> 100 µM,5.26 µM,> 100 µM,> 100 µM,> 100 µM,> 100 µM,> 100 µM
C=CC(=O)Nc1cccc(C)c1Nc1cc(-c2cccnc2Cc2c(C)c(OC)cc(OC)c2C)ncn1,> 100 µM,39.6 µM,49 µM,> 100 µM,41.7 µM,32.4 µM,> 100 µM,> 100 µM,> 100 µM,> 100 µM,9.97 µM,10.2 µM,17.8 µM,20.3 µM,10.7 µM,12.6 µM,17.3 µM,13.1 µM,23.7 µM,34.5 µM
CNC(=O)OCc1c(COC(=O)NC)c(C)n(-c2ccc(Br)cc2)c1C,> 100 µM,27.8 µM,36.3 µM,22.4 µM,27.3 µM,31 µM,12.7 µM,27.5 µM,32.3 µM,34.2 µM,–,–,–,–,–,–,–,–,–,–
CCCn1c(C)nc2c1C(=O)c1ccccc1C2=O,42.4 µM,> 100 µM,9.35 µM,71.6 µM,> 100 µM,> 100 µM,> 100 µM,> 100 µM,49 µM,> 100 µM,12.2 µM,56.8 µM,2.71 µM,25.8 µM,33.5 µM,59.4 µM,37.7 µM,37.6 µM,16.5 µM,86.2 µM
O=C1C=C(Br)c2c(-c3ccccc3)oc3cccc1c23,> 100 µM,> 100 µM,> 100 µM,> 100 µM,> 100 µM,> 100 µM,> 100 µM,> 100 µM,> 100 µM,> 100 µM,–,–,–,–,–,–,–,–,–,–
C=CCOC1OC(CO[Si](C)(C)C(C)(C)C)C(OCc2ccccc2)C(OCc2ccccc2)C1OCc1ccccc1 (centres undefined),> 100 µM,22.3 µM,> 100 µM,> 100 µM,> 100 µM,> 100 µM,> 100 µM,> 100 µM,> 100 µM,> 100 µM,–,–,–,–,–,–,–,–,–,–
Cc1cc2c(C)n(Cc3ccc(Cl)cc3Cl)nc2c(C#N)c1C,> 100 µM,37.4 µM,> 81.6 µM,> 100 µM,> 100 µM,> 100 µM,> 100 µM,> 100 µM,> 100 µM,47.4 µM,–,–,–,–,–,–,–,–,–,–
CCOC(=O)C(=O)Nc1c(CC)cccc1C(C)C,> 100 µM,> 100 µM,> 100 µM,> 100 µM,> 100 µM,> 100 µM,> 100 µM,> 100 µM,> 100 µM,> 100 µM,–,–,–,–,–,–,–,–,–,–
CN1CCN(Cc2ccc(NC(=O)c3cncc(C#Cc4cnc(N)c5ccncc45)c3)cc2C(F)(F)F)CC1,> 16.3 µM,7.48 µM,0.404 µM,6.42 µM,3.46 µM,1.07 µM,4.02 µM,1.95 µM,4.68 µM,> 50 µM,1.59 µM,1.73 µM,0.106 µM,0.212 µM,0.418 µM,0.3 µM,0.581 µM,0.181 µM,0.573 µM,0.687 µM
COc1ccc(-c2cc(-c3ccccc3)nc(SCCCC(=O)NO)n2)cc1,1.45 µM,3.49 µM,4.82 µM,10.9 µM,4.85 µM,9.26 µM,1.46 µM,6.94 µM,8.34 µM,5.54 µM,0.335 µM,0.573 µM,1 µM,1.64 µM,0.484 µM,2.3 µM,0.356 µM,2.08 µM,1.6 µM,1.74 µM
O=C(N/N=C/c1ccc2c(c1)CCC2)c1ccccc1O,74.5 µM,45 µM,61.5 µM,> 100 µM,> 100 µM,60 µM,34.8 µM,> 100 µM,95.1 µM,30 µM,–,–,–,–,–,–,–,–,–,–
Cc1ccc(-c2cc(-c3ccc(C)cc3)nc(NCCNc3ccnc4cc(Cl)ccc34)n2)cc1,2.82 µM,3.67 µM,3.52 µM,3.37 µM,3.49 µM,3.63 µM,3.13 µM,3.48 µM,4.07 µM,3.34 µM,1.43 µM,1.79 µM,1.82 µM,1.74 µM,1.71 µM,1.9 µM,1.68 µM,1.69 µM,1.98 µM,1.75 µM
O=C1C(=O)N(c2ccc(Cl)c(Cl)c2)C(=O)C(=O)C1c1nc2ccccc2s1,> 100 µM,> 100 µM,> 100 µM,> 100 µM,> 100 µM,> 100 µM,> 100 µM,> 100 µM,> 100 µM,> 100 µM,–,–,–,–,–,–,–,–,–,–
